Results: patent US11382918B2, “Methods for treating Huntington's Disease” (PTC Therapeutics, Inc., priority 2017, dated 2022)
Where a name gives a salt, the structure may show the parent alone.

Test system: Endogenous Huntingtin Protein (HTT)
Experiment: Endogenous Huntingtin Protein Assay (ELISA-based MSD electrochemiluminescence)
Type: cell-based
Conditions: Table 1
Experimental: Compounds of Formula (I) were tested using the Meso Scale Discovery (MSD) Assay provided in International Application No. PCT/US2016/066042, filed on Dec. 11, 2016 and claiming priority to U.S. Provisional Application 62/265,652 filed on Dec. 10, 2015, published as International Publication No. WO 2017/100726 on Jun. 15, 2017, the entire contents of which are incorporated herein by reference.
The Endogenous Huntingtin Protein assay used in Example 1 was developed using the ELISA-based MSD electrochemiluminescence assay platform.
Endogenous Huntingtin Protein Assay
Meso Scale Discovery (MSD) 96-well or 384-well plates were coated overnight at 4° C. with MW1 (expanded polyglutamine) or MAB2166 monoclonal antibody (for capture) at a concentration of 1 μg/mL in PBS (30 μL per well). Plates were then washed three times with 300 µL wash buffer (0.05% Tween-20 in PBS) and blocked (100 μL blocking buffer; 5% BSA in PBS) for 4-5 hours at room temperature with rotational shaking and then washed three times with wash buffer.
Samples (25 μL) were transferred to the antibody-coated MSD plate and incubated overnight at 4° C. After removal of the lysates, the plate was washed three times with wash buffer, and 25 μL of #5656S (Cell signaling; rabbit monoclonal) secondary antibody (diluted to 0.25 μg/mL in 0.05% Tween-20 in blocking buffer) was added to each well and incubated with shaking for 1 Hour at room temperature. Following incubation with the secondary antibody, the wells were rinsed with wash buffer after which 25 μL of goat anti-rabbit SULFO TAG secondary detection antibody (required aspect of the MSD system) (diluted to 0.25 μg/mL in 0.05% Tween-20 in blocking buffer) was added to each well and incubated with shaking for 1 hour at room temperature. After rinsing three times with wash buffer, 150 μL of read buffer T with surfactant (MSD) were added to each empty well, and the plate was imaged on a SI 6000 imager (MSD) according to manufacturers' instructions provided for 96- or 384-well plates.

**Q.** Which IC50 does the source give for `CCN1CCC(c2cn3c(=O)cc(-c4ccc5nn(C)cc5c4)nc3c(C)n2)CC1` [compound 864, 7-(1-ethylpiperidin-4-yl)-9-methyl-2-(2-methyl-2H-indazol-5-yl)-4H-pyrazino[1,2-a]pyrimidin-4-one] here?
**A.** < 100 nM

**Q.** With `CN1CC=C(c2ccc3nc(-c4ccc5nn(C)cc5c4)cc(=O)n3c2)CC1` [compound 476, 2-(2-methyl-2H-indazol-5-yl)-7-(1-methyl-1,2,3,6-tetrahydropyridin-4-yl)-4H-pyrido[1,2-a]pyrimidin-4-one] as the molecule, how does the IC50 read?
**A.** 3000 to 33000 nM

**Q.** `O=c1cc(-c2cnn(C3CCCCO3)c2)nc2ccc(N3CCNCC3)cn12` (stereo not shown) [compound 854, 7-(piperazin-1-yl)-2-[1-(tetrahydro-2H-pyran-2-yl)-1H-pyrazol-4-yl]-4H-pyrido[1,2-a]pyrimidin-4-one] was tested. Which IC50 did it give?
**A.** 3000 to 33000 nM

**Q.** Which IC50 does the source give for `Cc1cn2nc(-c3cc(=O)n4cc(N5CCC(N(C)CCO)CC5)cc(C)c4n3)cc2c(C)n1` [compound 582, 2-(4,6-dimethylpyrazolo[1,5-a]pyrazin-2-yl)-7-{4-[(2-hydroxyethyl)(methyl)amino]piperidin-1-yl}-9-methyl-4H-pyrido[1,2-a]pyrimidin-4-one] here?
**A.** 3000 to 33000 nM

**Q.** How did the IC50 turn out when `Cc1cc(C2CCN(CCO)CC2)cn2c(=O)cc(-c3ccc4nn(C)cc4c3)nc12` [compound 711, 7-[1-(2-hydroxyethyl)piperidin-4-yl]-9-methyl-2-(2-methyl-2H-indazol-5-yl)-4H-pyrido[1,2-a]pyrimidin-4-one] was run?
**A.** 100 to 500 nM

**Q.** Which IC50 does the source give for `Cc1cn2cc(-c3cc(=O)n4cc(N5CCNCC5)ccc4n3)cc(F)c2n1` [compound 209, 2-(8-fluoro-2-methylimidazo[1,2-a]pyridin-6-yl)-7-(piperazin-1-yl)-4H-pyrido[1,2-a]pyrimidin-4-one] here?
**A.** 100 to 500 nM

**Q.** For `Cc1cn2nc(-c3cc(=O)n4cc(C5=CCN(C6CCC6)CC5)ccc4n3)cc2c(C)n1` [compound 356, 7-(1-cyclobutyl-1,2,3,6-tetrahydropyridin-4-yl)-2-(4,6-dimethylpyrazolo[1,5-a]pyrazin-2-yl)-4H-pyrido[1,2-a]pyrimidin-4-one], which IC50 is on record?
**A.** 3000 to 33000 nM

**Q.** With `Cc1cn2cc(-c3cc(=O)n4cc(N5CCNCC5)ccc4n3)nc2c(C)n1` [compound 118, 2-(6,8-dimethylimidazo[1,2-a]pyrazin-2-yl)-7-(piperazin-1-yl)-4H-pyrido[1,2-a]pyrimidin-4-one] as the molecule, how does the IC50 read?
**A.** 3000 to 33000 nM

**Q.** Which IC50 does the source give for `CCN1CCN(c2ccc3nc(-c4cc(F)c5nc(C)oc5c4)cc(=O)n3c2)CC1` [compound 309, 7-(4-ethylpiperazin-1-yl)-2-(4-fluoro-2-methyl-1,3-benzoxazol-6-yl)-4H-pyrido[1,2-a]pyrimidin-4-one] here?
**A.** 1000 to 3000 nM

**Q.** `CN1CCC(c2ccc3nc(-c4ccc5nn(C)cc5c4)cc(=O)n3c2)CC1` [compound 578, 2-(2-methyl-2H-indazol-5-yl)-7-(1-methylpiperidin-4-yl)-4H-pyrido[1,2-a]pyrimidin-4-one] was tested. Which IC50 did it give?
**A.** 3000 to 33000 nM

**Q.** Which IC50 does the source give for `CC(C)N1CCC(c2ccc3nc(-c4ccc5nn(C)cc5c4)cc(=O)n3c2)CC1` [compound 608, 2-(2-methyl-2H-indazol-5-yl)-7-[1-(propan-2-yl)piperidin-4-yl]-4H-pyrido[1,2-a]pyrimidin-4-one] here?
**A.** 500 to 1000 nM

**Q.** How did the IC50 turn out when `Cc1cc(-c2cc(=O)n3cc(N4CCN[C@@H](C)C4)ccc3n2)cc2cnn(C)c12` [compound 777, 2-(1,7-dimethyl-1H-indazol-5-yl)-7-[(3S)-3-methylpiperazin-1-yl]-4H-pyrido[1,2-a]pyrimidin-4-one] was run?
**A.** 3000 to 33000 nM

**Q.** Which IC50 does the source give for `Cc1cn2cc(-c3cc(=O)n4cc(N5CCN[C@@H](C)C5)ccc4n3)cc(C(F)(F)F)c2n1` [compound 735, 7-[(3S)-3-methylpiperazin-1-yl]-2-[2-methyl-8-(trifluoromethyl)imidazo[1,2-a]pyridin-6-yl]-4H-pyrido[1,2-a]pyrimidin-4-one] here?
**A.** 3000 to 33000 nM

**Q.** Which IC50 does the source give for `Cc1nc2cc(-c3cc(=O)n4cc(N5CCNCC5)ccc4n3)ccc2s1` [compound 136, 2-(2-methyl-1,3-benzothiazol-5-yl)-7-(piperazin-1-yl)-4H-pyrido[1,2-a]pyrimidin-4-one] here?
**A.** 3000 to 33000 nM

**Q.** For `O=c1cc(-c2cnc(O)c(F)c2)nc2ccc(N3CCNCC3)cn12` [compound 839, 2-(5-fluoro-6-hydroxypyridin-3-yl)-7-(piperazin-1-yl)-4H-pyrido[1,2-a]pyrimidin-4-one], which IC50 is on record?
**A.** 3000 to 33000 nM

**Q.** How did the IC50 turn out when `CCc1nc(C)cn2nc(-c3cc(=O)n4cc(C5CCN(C(C)C)CC5)ccc4n3)cc12` [compound 679, 2-(4-ethyl-6-methylpyrazolo[1,5-a]pyrazin-2-yl)-7-[1-(propan-2-yl)piperidin-4-yl]-4H-pyrido[1,2-a]pyrimidin-4-one] was run?
**A.** 3000 to 33000 nM

**Q.** Which IC50 does the source give for `Cc1cn2cc(-c3cc(=O)n4cc(N5CCN(C)CC5)ccc4n3)cc(CO)c2n1` [compound 677, 2-[8-(hydroxymethyl)-2-methylimidazo[1,2-a]pyridin-6-yl]-7-(4-methylpiperazin-1-yl)-4H-pyrido[1,2-a]pyrimidin-4-one] here?
**A.** 3000 to 33000 nM

**Q.** For `CCN1CCN(c2ccc3nc(-c4cc5c(C6CC6)nc(C)cn5n4)cc(=O)n3c2)CC1` [compound 685, 2-(4-cyclopropyl-6-methylpyrazolo[1,5-a]pyrazin-2-yl)-7-(4-ethylpiperazin-1-yl)-4H-pyrido[1,2-a]pyrimidin-4-one], which IC50 is on record?
**A.** 3000 to 33000 nM

**Q.** For `CCc1nc(C)cn2nc(-c3cc(=O)n4cc(C5CCNCC5)ncc4n3)cc12` [compound 653, 2-(4-ethyl-6-methylpyrazolo[1,5-a]pyrazin-2-yl)-7-(piperidin-4-yl)-4H-pyrazino[1,2-a]pyrimidin-4-one], which IC50 is on record?
**A.** < 100 nM

**Q.** How did the IC50 turn out when `Cc1cn2nc(-c3cc(=O)n4cc(N(C)C5CC(C)(C)NC(C)(C)C5)cc(C)c4n3)cc2c(C)n1` [compound 852, 2-(4,6-dimethylpyrazolo[1,5-a]pyrazin-2-yl)-9-methyl-7-[methyl(2,2,6,6-tetramethylpiperidin-4-yl)amino]-4H-pyrido[1,2-a]pyrimidin-4-one] was run?
**A.** 3000 to 33000 nM

**Q.** For `Cc1cn2nc(-c3cc(=O)n4cc(N5CCNCC5)cc(C)c4n3)cc2c(C)n1` [compound 720, 2-(4,6-dimethylpyrazolo[1,5-a]pyrazin-2-yl)-9-methyl-7-(piperazin-1-yl)-4H-pyrido[1,2-a]pyrimidin-4-one], which IC50 is on record?
**A.** 3000 to 33000 nM

**Q.** With `CCc1nc(C)cn2cc(-c3cc(=O)n4cc(N5C[C@@H](C)N[C@@H](C)C5)ccc4n3)cc12` [compound 748, 7-[(3R,5S)-3,5-dimethylpiperazin-1-yl]-2-(1-ethyl-3-methylpyrrolo[1,2-a]pyrazin-7-yl)-4H-pyrido[1,2-a]pyrimidin-4-one] as the molecule, how does the IC50 read?
**A.** 500 to 1000 nM

**Q.** `Cc1nc(-c2cc(=O)n3cc(C4=CCNCC4)ccc3n2)cc2cnn(C)c12` [compound 861, 2-(1,7-dimethyl-1H-pyrazolo[3,4-c]pyridin-5-yl)-7-(1,2,3,6-tetrahydropyridin-4-yl)-4H-pyrido[1,2-a]pyrimidin-4-one hydrochloride (1:2)] was tested. Which IC50 did it give?
**A.** 3000 to 33000 nM

**Q.** `Cc1cn2nc(-c3cc(=O)n4cc(N5CCN(C)CC5)ccc4n3)cc2c(C)n1` [compound 170, 2-(4,6-dimethylpyrazolo[1,5-a]pyrazin-2-yl)-7-(4-methylpiperazin-1-yl)-4H-pyrido[1,2-a]pyrimidin-4-one] was tested. Which IC50 did it give?
**A.** 3000 to 33000 nM

**Q.** Which IC50 does the source give for `O=c1cc(-c2cn[nH]c2)nc2ccc(N3CCNCC3)cn12` [compound 855, 7-(piperazin-1-yl)-2-(1H-pyrazol-4-yl)-4H-pyrido[1,2-a]pyrimidin-4-one hydrochloride (1:1)] here?
**A.** 3000 to 33000 nM

**Q.** Which IC50 does the source give for `Cc1nc2c(F)cc(-c3cc(=O)n4cc(N5CCN[C@@H](C)C5)ccc4n3)cc2o1` [compound 306, 2-(4-fluoro-2-methyl-1,3-benzoxazol-6-yl)-7-[(3S)-3-methylpiperazin-1-yl]-4H-pyrido[1,2-a]pyrimidin-4-one] here?
**A.** 100 to 500 nM

**Q.** How did the IC50 turn out when `C[C@@H]1CN(c2ccc3nc(-c4ccc5c(cnn5C)c4)cc(=O)n3c2)C[C@H](C)N1` [compound 552, 7-[(3R,5S)-3,5-dimethylpiperazin-1-yl]-2-(1-methyl-1H-indazol-5-yl)-4H-pyrido[1,2-a]pyrimidin-4-one] was run?
**A.** 3000 to 33000 nM

**Q.** With `CCc1cn2cc(-c3cc(=O)n4cc(N5CCNCC5)ccc4n3)ccc2n1` [compound 124, 2-(2-ethylimidazo[1,2-a]pyridin-6-yl)-7-(piperazin-1-yl)-4H-pyrido[1,2-a]pyrimidin-4-one] as the molecule, how does the IC50 read?
**A.** 3000 to 33000 nM

**Q.** Which IC50 does the source give for `Cn1cc2cc(-c3cc(=O)n4cc(N5CCNCC5)ccc4n3)ccc2n1` [compound 137, 2-(2-methyl-2H-indazol-5-yl)-7-(piperazin-1-yl)-4H-pyrido[1,2-a]pyrimidin-4-one] here?
**A.** 1000 to 3000 nM

**Q.** `Cc1cn2nc(-c3cc(=O)n4cc(N5CCC(C)(NCCO)CC5)ccc4n3)cc2c(C)n1` [compound 709, 2-(4,6-dimethylpyrazolo[1,5-a]pyrazin-2-yl)-7-{4-[(2-hydroxyethyl)amino]-4-methylpiperidin-1-yl}-4H-pyrido[1,2-a]pyrimidin-4-one] was tested. Which IC50 did it give?
**A.** 3000 to 33000 nM

**Q.** For `Cc1nc2cc(-c3cc(=O)n4cc(N5CCN[C@@H](C)C5)ccc4n3)ccc2s1` [compound 135, 2-(2-methyl-1,3-benzothiazol-5-yl)-7-[(3S)-3-methylpiperazin-1-yl]-4H-pyrido[1,2-a]pyrimidin-4-one], which IC50 is on record?
**A.** 1000 to 3000 nM
